Test results as given in US10542747B2, “Plant irrigation methods with 1-MCP” (Syngenta Participations AG, priority 2010, dated 2020).

Columns and labels:
[1] = system: 5-6 leaf tomato plants (var. Rutgers); assay: Tomato epinasty test (Cerone/ethephon challenge); assay type: in vivo; settings: average of 8 plants
[2] = system: 5-6 leaf tomato plants (var. Rutgers); assay: Tomato epinasty test (Cerone/ethephon challenge); assay type: in vivo; settings: 200 l/ha, average of 8 plants
Experimental: Bioassay test material: 5-6 leaf tomato plants (var. Rutgers), 8 reps/treatment.
The first column of table 1 provides a summary of change in angle of the 3rd leaf petiole at 24 hours after application of Cerone (ethephon). There are two sets of data, one for those challenged with Cerone at 4 hours after 1-MCP formulation application and a second set for plants challenged with Cerone at 24 hrs after 1-MCP formulation application. Data are the averages of 8 replicate plants
Procedures Used for Epinasty Test:
1-MCP formulation and rates: 1-MCP in the form of an α-cyclodextrin molecularly encapsulated powder dispersed in an aqueous MgSO4 solution
Standard foliar spray at 200 l/ha and 0.035% v/v kinetic silicon adjuvant 0, 10 and 20 g ai/ha
Application rate 500 g ai/ha at 400 l/ha application volume
Application at 4 and 24 HAA of Invinsa
Angle of 3rd petiole to plants stem measured prior to 1-MCP application and again at 24 HAT Final data expressed as average change in 3rd petiole angle

[3] = cited from earlier work
[4] = system: Wheat plants, variety ARINA; assay: Effect of 1-MCP on stressed wheat plants grown in pouches (drought stress); assay type: in vivo; settings: 200 ppm in the pouch water at day 8; 5 days without watering at 26° C.; FIG. 1
Experimental: FIG. 1 illustrates wheat plants grown in pouches. On the right-hand side plants treated with 1-MCP and on the left-hand side non treated check plants.
10 mL of the mixture are added per pouch with a pipette.
20 to 25 Wheat kernels from the variety ARINA were sown in a plastic bag (pouch) with an absorbent paper, watered and grown under optimal conditions in a climate chamber for 8 days. At day 8 the 1-MCP in the form of an α-cyclodextrin molecularly encapsulated powder was applied at a 200 ppm rate to the water in the pouch. After application the plants were not watered anymore, but placed in a warm environment at 26° C. After 5 days without watering the differences of treated vs. untreated were evaluated visually (FIG. 1).

SMILES: CC1=CC1 [1-MCP, 1-methylcyclopropene]
- Average change in angle of third petiole ([1]; 1 g ai/ha chemigation, Cerone applied 4 HAA 1-MCP): 60
- Average change in angle of third petiole ([1]; 1 g ai/ha chemigation, Cerone applied 24 HAA 1-MCP): 78
- Average change in angle of third petiole ([1]; 10 g ai/ha chemigation, Cerone applied 4 HAA 1-MCP): 20
- Average change in angle of third petiole ([1]; 10 g ai/ha chemigation, Cerone applied 24 HAA 1-MCP): 48
- Average change in angle of third petiole ([1]; 20 g ai/ha chemigation, Cerone applied 4 HAA 1-MCP): −9
- Average change in angle of third petiole ([1]; 20 g ai/ha chemigation, Cerone applied 24 HAA 1-MCP): 41
- Average change in angle of third petiole ([1]; >20 g ai/ha chemigation (incorrect pump calibration), Cerone applied 4 HAA 1-MCP): −4
- Average change in angle of third petiole ([1]; >20 g ai/ha chemigation (incorrect pump calibration), Cerone applied 24 HAA 1-MCP): 18
- Average change in angle of third petiole ([2]; 10 g ai/ha foliar spray, Cerone applied 4 HAA 1-MCP): 71
- Average change in angle of third petiole ([2]; 10 g ai/ha foliar spray, Cerone applied 24 HAA 1-MCP): 82
- Average change in angle of third petiole ([2]; 20 g ai/ha foliar spray, Cerone applied 4 HAA 1-MCP): 40
- Average change in angle of third petiole ([2]; 20 g ai/ha foliar spray, Cerone applied 24 HAA 1-MCP): 86
- water-solubility [3]: 137 mg I−1
- drought tolerance of treated vs. untreated plants, evaluated visually [4]: greater drought tolerance than control plants
